Experimental data taken from PubChem BioAssay (NCI).
Several values for one entry are separate records, joined by “and”; a condition that tells them apart may be missing. Identical values can stand only once.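 Exposure lasted 48 hours, with cells grown in 96-well plates and compounds tested at five concentrations. At the GI50, growth is halved. TGI marks complete inhibition of growth.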

How the values were obtained:
Assay in all cases: inhibition of tumour cell growth, NCI panel, 48 h
SN12C renal = system: SN12C renal
TK-10 renal = system: TK-10 renal
RPMI-8226 leukemia = system: RPMI-8226 leukemia
LOX IMVI melanoma = system: LOX IMVI melanoma
SK-MEL-2 melanoma = system: SK-MEL-2 melanoma
HCT-15 colon = system: HCT-15 colon
CAKI-1 renal = system: CAKI-1 renal
NCI-H226 lung = system: NCI-H226 lung
DU-145 prostate = system: DU-145 prostate
MDA-MB-231 breast = system: MDA-MB-231 breast

SMILES | TGI (SN12C renal) | TGI (TK-10 renal) [µM] | TGI (RPMI-8226 leukemia) | TGI (LOX IMVI melanoma) [µM] | TGI (SK-MEL-2 melanoma) | TGI (HCT-15 colon) | TGI (CAKI-1 renal) [µM] | TGI (NCI-H226 lung) | GI50 (SN12C renal) | GI50 (TK-10 renal) [µM] | GI50 (DU-145 prostate) [µM] | TGI (DU-145 prostate) [µM] | GI50 (RPMI-8226 leukemia) [µM] | GI50 (LOX IMVI melanoma) [µM] | GI50 (HCT-15 colon) | GI50 (CAKI-1 renal) [µM] | GI50 (NCI-H226 lung) [µM] | GI50 (MDA-MB-231 breast) [µM] | TGI (MDA-MB-231 breast) [µM] | GI50 (SK-MEL-2 melanoma) [µM]
O=C1CCC(Cl)=CC2CCCN12 (stereo not given) | > 100 µM | > 100 | > 100 µM | > 100 | > 100 µM | > 100 µM | > 100 | > 100 µM | – | – | – | – | – | – | – | – | – | – | – | –
CCOC(=O)C1=CN(C)C=C(C(=O)OCC)C1c1cc(Br)c(OCC)c(OC)c1 | > 100 µM | > 100 | > 100 µM | > 100 | – | > 100 µM | > 100 | > 100 µM | > 100 µM | > 100 | > 100 | > 100 | 25.8 | > 100 | > 100 µM | 53 | > 100 | 45.4 | > 100 | –
Cc1ccc(SC2c3ccc(C)cc3Oc3nc(N)c(C#N)c(N)c32)cc1 (stereo not given) | – | 3.39 | 5.12 µM | 3.14 | 3.71 µM | 3.23 µM | – | 4 µM | – | 1.95 | 1.86 | 3.36 | 2.15 | 1.59 | 1.72 µM | – | 1.77 | 1.67 | 3.29 | 1.84
CC1(C)CC(=O)C(C=NC(=S)c2ccccc2)=C(O)C1 | > 100 µM | > 100 | – | > 100 | > 100 µM | > 100 µM | > 100 | > 100 µM | – | – | – | > 100 | – | – | – | – | – | – | > 100 | –
O=C(CCN(C(=O)O)S(=O)(=O)c1ccc(NC(=O)c2ccccc2)cc1)Nc1ccccc1 | > 100 µM | > 100 | > 82.4 µM | > 71.4 | > 100 µM | > 75.2 µM | > 100 | > 100 µM | – | – | – | – | – | – | – | – | – | – | – | –
Clc1ccc2c(c1)[nH]c1c2nc2ccccn21 | > 100 µM and 32.2 µM | 31.2 | 64.7 µM and 54.5 µM | – | > 100 µM and 17.8 µM | > 100 µM and 38.5 µM | – | 44.7 µM and 63.9 µM | 36.1 µM and 15.4 µM | – | – | – | – | – | 40.8 µM and 20 µM | – | – | – | – | –
N.N.N.N.O=C([O-])CCl.O=C([O-])CCl.[Co+3].[O-][Cl+3]([O-])([O-])[O-] | > 100 µM | > 100 | > 100 µM | > 100 | > 100 µM | > 100 µM | – | – | > 100 µM | > 100 | – | – | > 100 | > 100 | > 100 µM | – | – | – | – | > 100
NC(N)=N/N=C/c1c(-c2ccsc2)nc2sccn12 | 29.7 µM | 22.7 | 20.7 µM | 33.2 | – | 31.7 µM | 21.9 | 31.2 µM | 15.7 µM | 10.8 | 16.4 | 31.4 | 4.83 | 17.6 | 17.1 µM | 10.3 | 16.4 | 16.6 | 30.9 | –
CCC12CCCN(Cc3ccccc3)C1c1c(n(C)c3ccccc13)CC2 (stereo not given) | > 253 µM | > 253 | > 253 µM | > 253 | > 253 µM | > 253 µM | > 253 | > 253 µM | – | – | – | – | – | – | – | – | – | – | – | –
